The target of one data set is T1, USP19 (Homo sapiens, UniProt O94966).
T1 sequence (O94966 1-1318): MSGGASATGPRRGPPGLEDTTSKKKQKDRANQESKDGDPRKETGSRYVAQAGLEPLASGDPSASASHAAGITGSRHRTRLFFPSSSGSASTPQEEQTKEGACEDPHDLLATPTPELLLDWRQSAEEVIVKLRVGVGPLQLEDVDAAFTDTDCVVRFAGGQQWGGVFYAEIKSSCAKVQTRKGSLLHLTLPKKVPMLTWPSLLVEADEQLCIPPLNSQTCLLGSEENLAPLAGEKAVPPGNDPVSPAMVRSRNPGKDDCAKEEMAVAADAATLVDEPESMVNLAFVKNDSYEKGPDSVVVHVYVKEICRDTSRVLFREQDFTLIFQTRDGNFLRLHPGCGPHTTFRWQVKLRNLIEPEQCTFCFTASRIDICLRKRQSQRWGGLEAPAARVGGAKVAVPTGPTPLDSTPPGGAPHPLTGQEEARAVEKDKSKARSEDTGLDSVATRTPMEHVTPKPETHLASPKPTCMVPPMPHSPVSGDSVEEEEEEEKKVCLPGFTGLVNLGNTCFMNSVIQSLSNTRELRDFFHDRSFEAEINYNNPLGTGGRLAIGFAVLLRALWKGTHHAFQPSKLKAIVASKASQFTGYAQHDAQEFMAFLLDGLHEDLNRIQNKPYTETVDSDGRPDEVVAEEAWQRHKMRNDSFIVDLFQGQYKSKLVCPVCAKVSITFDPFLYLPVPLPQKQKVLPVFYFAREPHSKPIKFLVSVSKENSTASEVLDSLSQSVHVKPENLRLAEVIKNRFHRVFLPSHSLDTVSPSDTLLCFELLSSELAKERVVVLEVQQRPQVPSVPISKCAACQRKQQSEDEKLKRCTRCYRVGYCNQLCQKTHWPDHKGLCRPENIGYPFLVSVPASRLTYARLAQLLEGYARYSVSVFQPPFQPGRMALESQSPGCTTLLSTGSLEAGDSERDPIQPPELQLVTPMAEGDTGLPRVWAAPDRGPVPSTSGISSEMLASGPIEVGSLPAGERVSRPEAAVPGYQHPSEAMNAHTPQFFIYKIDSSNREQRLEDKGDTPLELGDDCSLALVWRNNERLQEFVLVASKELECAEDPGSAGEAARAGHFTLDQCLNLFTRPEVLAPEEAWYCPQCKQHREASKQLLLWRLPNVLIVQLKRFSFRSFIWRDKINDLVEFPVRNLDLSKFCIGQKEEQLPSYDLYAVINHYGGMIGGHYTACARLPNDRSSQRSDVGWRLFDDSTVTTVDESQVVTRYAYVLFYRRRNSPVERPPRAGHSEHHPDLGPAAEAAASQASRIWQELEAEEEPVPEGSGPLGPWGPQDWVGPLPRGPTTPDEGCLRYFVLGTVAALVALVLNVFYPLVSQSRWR
Nature of the data set: Cell target engagement, neuroblastoma cell line. It is filed as cell-based. How it is done: Cells from a breast cancer cell line, a neuroblastoma cell line and a mouse skeletal muscle cell line were treated with a USP19 inhibitor compound (ADC-141, corresponding to Example 212 provided herein) for 2 hrs, lysed (lysis buffer: 50 mM Tris pH 7.4; 150 mM NaCl; 5 mM MgCl2; 0.5 mM EDTA; 0.5% NP40; 10% Glycerol; 2 mM DTT) and Ubiquitin-propargylamine (Ub-PA; UbiQ) or Ubiquitin-vinyl methyl ester (Ub-VME; Almac Sciences Scotland Limited) was then added. Samples were analysed by western blotting probing for USP19 (EC50 determined by densitometry).

For data set [1], the system named is diet-induced obese (DIO) mouse. Nature of the data set: Diet-induced obesity mouse model: body weight, DEXA and carcass composition. It is filed as in vivo. The procedure:
To assess obesity and insulin resistance, a diet-induced obesity mouse model was used.
Male C57BL6/J mice were continuously provided with high-fat diet (D12451, 45% kcal as fat; Research Diets, New Jersey, USA) and filtered tap water ad libitum for the duration of the study. From day 0, mice were administered vehicle i.p. BID, USP19 inhibitor (ADC-141) i.p. BID at 5 mg/kg or 25 mg/kg, or positive control liraglutide 0.1 mg/kg s.c. BID. Mice were allocated to treatment groups to balance the groups on the basis of body weight, food and water intake prior to the start of treatment.
Body weight was measured daily. On Day 13, body composition was assessed by DEXA. On Day 15, fasting glucose and insulin levels were measured before and during an oral glucose tolerance test (OGTT) to assess improvements in glucose control. The OGTT was performed following an overnight fast. […] An OGTT was performed the following morning (approx. 16h post fast). Mice were dosed with vehicle or test compound (starting at 08.45) to a timed schedule 30 minutes prior to the administration of the glucose challenge (2.0 g/kg po). Blood samples were taken immediately prior to dosing (B1), immediately prior to glucose administration (B2) and 15, 30, 60 and 120 minutes after glucose administration.
After OGTT, mice were humanely killed and carcass composition was assessed. The carcass was weighed and stored frozen and the chemical composition of each carcass (fat, protein, water and ash) was determined using classical techniques. Carcass water was determined by freeze-drying the carcasses to constant weight for 2 weeks. Carcass fat was determined on samples of the dry powdered carcasses using a modified Soxhlet extraction protocol (petroleum ether at 40-60° C.) with a Tecator Soxtec 2050 system (Foss UK Ltd, Wheldrake, UK) according to the manufacturer's recommended protocol. Carcass protein was determined using a micro-Kjeldahl procedure on samples of the dry powdered carcasses using a Tecator 2012 digestion block and 2200 distilling unit (Foss UK Ltd). Residual carcass ash was determined by firing samples of the dry powdered carcasses at high temperatures using a muffle ashing furnace (Carbolite OAF 11/1). Repeat determinations of the chemical analysis parameters were performed if necessary (e.g. if the duplicate samples differed by more than 1%). Data for each body composition parameter (fat, protein, water and ash) was determined as g/carcass and % total. Final carcass weights were also analysed as a direct comparison.

Setting [2] is: ADC-141 25 mg/kg ip bid, liraglutide 0.1 mg/kg sc bid.
Where [3] appears, read: ADC-141 25 mg/kg ip bid, liraglutide 0.1 mg/kg sc bid, vs vehicle.
Where [4] appears, read: DEXA, ADC-141 25 mg/kg ip bid, liraglutide 0.1 mg/kg sc bid.

On to `C[C@H](CC1CCCCC1)C(=O)N1CC[C@@](O)(Cn2cc(C(=O)N3CCNCC3)c(-c3ccccc3)cc2=O)C2(CCCC2)C1` [ADC-141, 1-(((S)-7-((R)-3-Cyclohexyl-2-methylpropanoyl)-10-hydroxy-7-azaspiro[4.5]decan-10-yl)methyl)-4-phenyl-5-(piperazine-1-carbonyl)pyridin-2(1H)-one], for which, at USP19, the cell permeability entry is “good cell permeability”. Besides, the “EC50 (USP19 target engagement, densitometry)” value on USP19 (2 hrs treatment, Ub-PA or Ub-VME probe, western blot) was “low nanomolar”. Moreover, in data set [1] (ADC-141 5 mg/kg ip bid), the “relative water content of the carcass (percentage of total carcass mass)” value is “no effect”. The “carcass water content (g)” value in data set [1] (ADC-141 5 mg/kg ip bid, vs vehicle) is “no significant effect”. In addition, in data set [1] (ADC-141 5 mg/kg ip bid, vs vehicle-treated animals), the carcass protein result is “no significant changes”. Besides, the carcass percentage fat in data set [1] (ADC-141 25 mg/kg ip bid) is listed as −14.6%. For the same compound, in data set [1] (setting [2]), the “differences in body weights on the final day of the study” value is on record as about 13%; the “loss of fat as share of the total weight lost” value amounted to 79%; the “percent protein (percentage of total carcass mass), increase” value came to 6.0%; the “reduction in carcass fat (g) from controls” value stood at 24.9%. Also, in data set [1] (setting [2]), the “relative water content of the carcass (percentage of total carcass mass)” value is “+11.4%”. For the same compound, in data set [1] (setting [3]), the “carcass ash content (g)” value is on record as −9.6%, the “carcass protein content (g)” value is −7.2% and the “carcass water content (g)” value is reported as “no significant effect”. Further, the “reduction in fat mass compared to vehicle treated controls” value in data set [1] (DEXA Day 13, liraglutide 0.1 mg/kg sc bid, dose of USP19 inhibitor not printed at place) is 24%. Also, the “lean body mass change” value in data set [1] (DEXA Day 13, vs vehicle, not significant (p>0.05)) is on record as −3%. In addition, the total tissue mass entry in data set [1] (DEXA analysis) is “significant reduction”. In addition, in data set [1] (setting [4]), the “fat mass % (percentage of total tissue mass)” value was “significantly decreased” and the “lean mass % (percentage of total tissue mass)” value is on record as “increased”. Moreover, the “cumulative and average food intake” value in data set [1] (compared to vehicle control mice (p<0.001)) is “reduction”. In data set [1] (two weeks, ADC-141 25 mg/kg ip bid, liraglutide 0.1 mg/kg sc bid), the “carcass weight compared to vehicle-treated controls” value is given as about −12%. Further, the “average weekly body weight gain” value in data set [1] (week 1, ADC-141 25 mg/kg ip bid, liraglutide 0.1 mg/kg sc bid, vs vehicle) is listed as “significantly decreased”. Besides, the “average weekly body weight gain” value in data set [1] (week 2, ADC-141 25 mg/kg ip bid, liraglutide 0.1 mg/kg sc bid, vs vehicle) was “significantly decreased”.

(Values after patent publication US20220016115A1, “USP19 INHIBITORS FOR USE IN THERAPY” (ALMAC DISCOVERY LIMITED, priority 2018, published 2022).)
